Measurements published in patent US20110123483A1, “HMGB1 FOR CANCER TREATMENT” (DEUTSCHES KREBSFORSCHUNGSZENTRUM, priority 2009, published 2011).

What was measured:
Assay type in all cases: cell-based, human
mitochondrial proteome = test: 2-D gel electrophoresis / 2-D western blot of the mitochondrial proteome
Description: Mitochondrial extracts of U251 MG cells precipitated according to the ProteoExtract Protein Precipitation Kit (Calbiochem) were pipetted into the sample cup of each strip holder. For large format 2-D-electrophoresis with silver staining and 2-D-western blots, isoelectric focusing (IEF) was performed as described previously (Schutt et al., 2002) using dry polyacrylamide gel strips (IPG, 24 cm) with an immobilized pH gradient pH 3-10 and the IPGphor1 Isolectric Focusing System (Amersham Pharmacia Biotech). IPG strips were rehydrated in reswelling buffer (7 M urea, 2 M thiourea, 2% (w/v) CHAPS, 65 mM dithiothreitol (DTT), 0.8% Pharmalite) overnight. The IEF protocol started at 500 V for 4 h, followed by an increase from 500 V to 4000 V for 10 h and finally 8000 V for 10 h. Equilibration buffer for IPG strips contained 75 mM Tris-HCl, pH 8.8, 2% SDS, 6 M urea, 29.3% glycerol and 0.002% (w/v) bromophenol blue solution, supplemented with 1.5% DDT for the first 15 min and with 2.5% (w/v) iodoacetamide for the following 15 min. For the second dimension the ETTAN Dalt six electrophoresis system was used. After draining the equilibration solution on filter paper the IPG strips were placed on the SDS gel; the electrical settings were 10 mA/gel, 80 V, 1 W/gel for 1 h, followed by 40 mA/gel, 500 V, 13 W/gel for 5-6 h. […]

U251 MG cells = test: Western blot of phospho-H2A.X and BNIP3; settings: 24 h (FIG. 7)
Description: The U251 MG tumor cells were lysed in lysis buffer containing 20 mmol/L Tris-HCl (pH 7.4), 137 mmol/L NaCl, 10% (v/v) glycerine, 1% Triton X-100, 2 mmol/L EDTA, 100 mmol/L phenylmethylsulfonyl fluoride, and protease inhibitors (Complete mini; Roche Molecular Biochemicals). For the detection of phosphoprotein levels, 10 mmol/L NaPPi, 50 mmol/L NaF, and 20 mmol/L NaVO4 were added to the lysis buffer. After 15 min incubation on ice, the lysates were centrifuged at 14,000×g for 10 min. The total protein concentration of the lysates was measured using the Bradford assay (Bio-Rad). Soluble protein (25-100 μg per lane) was separated on 10% to 15% polyacrylamide gels and blotted onto nitrocellulose by standard procedures. […]

mitochondrial DNA = test: Dot blot analysis of mitochondrial DNA; settings: 24 h (FIG. 11A)
Description: Subcellular fractionation was performed as described below. The DNA of the resulting mitochondrial suspension was purified by a modified method described in Almeida et al. (Almeida et al., 2006). Briefly, contaminating nuclear DNA was precipitated by lysis of the mitochondria in a buffer of 50 mM glucose, 1.5 mM EDTA, 25 mM Tris-HCl, pH 7.4 with 20% SDS and 3 M K-acetate. After centrifugation (10 min, 4° C., 10.000×g) the supernatant was digested with 20 mg/ml proteinase K for 1 h at 37° C. and mtDNA was extracted twice with phenol-chloroform and one additional time with chloroform, followed by precipitation of mtDNA from the aqueous phase by adding two volumes of isopropanol. The pellet was washed with 80% ethanol at −20° C. After drying the mtDNA was solved in TE-buffer (10 mM Tris-HCl, pH 7.4, 1 mM EDTA, pH 8.0). After treatment of the samples with 100 μg/ml ribonuclease A (RNAse A) for 1 h at 37° C., the phenol-chloroform extraction steps were repeated and mtDNA was precipitated by adding 2 volumes of 100% ethanol and 1/10 volume 5 M NaCl at −20° C. overnight. After a centrifugation step for 20 min at 4° C. with 13,000 rpm and washing the pellet 2× with 80% ethanol, followed by drying, the pellet was solved in ddH2O. The purified DNA was digested overnight with BamHI and loaded on a 0.5% agarose gel. […] Labeling efficiency was determined as described in the kit. […]

With “rhHMGB1: recombinant human High Mobility Group B1 protein (Sigma Aldrich)” the “mitochondrial proteome, 2-D silver staining” value (mitochondrial proteome; 80 nM, 24 h (FIG. 11B)) was “massive depletion of the isoelectric-neutral proteins”, the “covalently bound malondialdehyde, 2-D western blot” value (mitochondrial proteome; alkaline range (FIG. 11C)) was “substantial increase in covalently bound malondialdehyde” and the BNIP3 expression (U251 MG cells) was “not up-regulated”. For the same substance, the H2A.X phosphorylation (U251 MG cells) was “not observed” and the “mitochondrial DNA content” value (mitochondrial DNA) was “substantial and rapid depletion of mtDNA”.
